Reference: patent US20260223837A1, “NATURAL LIPID PARTICLE FORMULATIONS FOR AGRICULTURAL APPLICATIONS” (INVAIO SCIENCES, INC., priority 2023, published 2026)

How the values were obtained:
Fusarium oxysporum = test: Resazurin based Fusarium inhibition assay; type: cell-based; details: 24 hr incubation, compared to negative controls (DMSO)
Experimental: The purpose of this assay was to quantify the effect of encapsulation of AZO, an antifungal agent, in NLP particles on its efficacy against a fungal pathogen (e.g., Fusarium oxysporum). Encapsulated AZO was compared to unencapsulated counterparts to determine if there is any change in efficacy. Formulations were tested in a 96-well plate and incubated with F. oxysporum conidia (spores) for 24 hr, after which resazurin dye was added. After 4 hr of incubation the color change of resazurin from blue to a fluorescent pink due to fungal respiration was assessed spectrophotometrically and the percent inhibition of respiration, as a measure of fungal growth, was determined by comparison to a conidia-only negative control. […] Fusarium oxysporum was cultured on 50% potato dextrose broth (PDB) agar plates. Using a pipette tip, a small mycelium aliquot was transferred to a 50-mL flask containing carboyxymethyl cellulose medium (CMC). […] Conidia were counted in the resuspended pellet using a hemocytometer, and diluted to 1×10^6 conidia/mL in 20% glycerol solution, from which a 1×10^5 conidia/mL working solution was prepared. […] After 24 h, 10 μL of PrestoBlue reagent was added to each well of the plate, followed by 4 h incubation, after which the fluorescence was read at 570/620 nm with a read height of 7 mm.

tomato hornworm (THW) = test: Tomato seed priming, tomato hornworm infestation; type: in vivo; details: seed priming 24 hr
Experimental: Tomato seeds are surface-sterilized by 1 ml 25% Bleach with 0.025% Triton X-100 in 1.5 ml centrifuge tube, then washed 3 times with 1 ml sterile water. Tomato seeds (N=50) are primed in 0.3 ml of below treatment solutions in a 1.5 ml centrifuge tube for 24 hr.
The primed tomato seeds (N=14) are germinated and grown on a precut mesh (0.08″×0.025″ Opening; Mcmaster-Carr) in 20 ml half strength Murashige and Skoog Basal Medium (MP Bio, Cat #0926231—CF) in a deep petri dish (100 mm×25 mm). The petri dishes are placed in large plastic container (236 Oz) with holes on both sides of the container and 100 ml MilliQ water to maintain high humidity. The containers are placed in a Percival incubator (about 25° C., 50% relative humidity). After 10 days, the mesh along with the seedlings on it is moved from the petri dish containing half strength MS media and excess media on mesh is dried by damping the roots on paper towels. After 3 days, the mesh with seedlings is removed from the petri dish and the roots are washed twice with MilliQ water and placed on paper towel to blot off excess water. The mesh with tomato seedlings is transferred to a new petri dish with 25 ml of 1% Phytagel (P8169-1 KG, Sigma-Aldrich). […]
The insect mortality is scored after 2 days, and the mortality is normalized against negative control (water treatment) to calculate the % larval control.

fall army worms (FAW) = test: Corn seedling root application, fall army worm infestation; type: in vivo; details: for plant mass / fresh weight: in vivo; for FAW mortality: two days post-infestation
Experimental: Two hundred corn seeds of the MBS Hybrid line are sterilized in 15% bleach sterilization solution by placing 50 seeds each in 4 separate 50 mL Falcon tubes and adding 25 mL sterilization solution into each tube. The tubes containing seeds are shaken on an orbital shaker at low speed for 15 min, after which the seeds are rinsed 3 times with sterile MilliQ water in the biological safety cabinet to ensure sterility. Six seeds are then selected from each tube and placed into CYG germination pouches (PhytoAB ca #CYG-38 LB) with 50 ml of sterile DI water. Seeds are allowed to germinate in the dark for 3 days at 25° C. and 60% relative humidity. After 3 days seedlings are moved to climate-controlled chambers with a light: dark cycle of 16:8 at 25° C. and 60% RH. At this time 25 ml of treatment solutions suspended in Hoagland's solution (Sigma-Alderich H2395-1L, 1.3 g/L, pH 6.5) are added to germination pouches. […] Seedlings are allowed to grow and uptake solution for 3 days before FAW infestation.
Six-day-old plants are infested with non-diapausing FAW at a rate of two 2nd instar larvae per plant. […] Before infestation germination pouches are sealed to prevent FAW from making direct contact with nutrient and NLP solutions. FAW are then allowed to feed on plants for a duration of 2 days in a Percival incubator (25° C., 50% RH, 16:8 Light: dark cycle).
FAW mortality is scored two days post-infestation by removing larvae from plants and probing 3 times. Larvae that are unresponsive to probing or not recovered are considered dead and the proportion of surviving larvae over initial infestation numbers are compared across treatments. Plant mass is also recorded by weighing individual seedlings after larvae are removed and average mass of seedlings are compared across treatments.

whiteflies = test: Tomato seedling root treatment, whitefly exposure; type: in vivo; details: after 7 days
Experimental: Tomato seeds (N=14) are germinated and grown on a precut mesh (0.08″×0.025″ Opening; Mcmaster-Carr, Cat #1100T45) in 20 ml ½ MS media ([…] filtered without sucrose added) in a deep petri dish (100 mm×25 mm). The petri dishes are placed in a large plastic container (Sistema; 236 Oz) with holes on both sides of the container and 100 ml MilliQ water to maintain high humidity. Large plastic containers are placed in a Percival incubator (25° C., 50% RH). After 10 days, the mesh along with the seedlings on it is moved from the petri dish containing half strength MS media, and excess media on mesh is dried by blotting the roots on paper towels. […] After 3 days, the mesh with seedlings is taken out of petri dish and the roots are washed with MilliQ water 2 times and placed on a paper towel to blot off excess water. The mesh with tomato seedlings is transferred to a new petri dish with 25 ml of 1% phytogel (P8169-1 KG, Sigma-Aldrich).
From a whitefly infested plant in a rearing cage, leaves that are infested with about 200 white flies are excised using scissors and placed in a petri dish. The petri dish is placed at the base of the tomato plants on the phytagel taking care to not damage the tomato plant roots. The boxes with the tomato plant and the whiteflies are placed in an incubator with 16 h light/8 hr dark photoperiod, 26° C. and 50% humidity. […]

Tomato Horn Worm (THW) = test: Tomato seedling root uptake assay followed by THW infestation; details: in vivo
Experimental: Tomato seeds (N=14) were germinated and grown on a precut mesh (0.08″×0.025″ Opening; Mcmaster-Carr, Cat #1100T45) in 20 ml 0.5×MS media ([…] filtered without sucrose added) in a deep petri dish (100 mm×25 mm). The petri dishes were placed in a plastic container (236 Oz) with holes on both sides of the container and 100 ml MilliQ water to maintain high humidity. The plastic containers with plants were placed in a Percival incubator (25° C., 50% relative humidity).
After 10 days, the mesh along with the seedlings on it was moved from the petri dish containing 0.5×MS media and excess media on mesh was dried by damping the roots on paper towels. The seedlings on the mesh were placed in a new deep petri dish containing formulation solution (20 ml) in the same large plastic container and Percival incubator. […] After 3 days, the mesh with seedlings was taken out of petri dish and the roots were washed with MilliQ water 2 times and placed on a paper towel to blot off excess water. […]
Five THW larvae were placed on the tomato seedlings on mesh in each petri dish and the petri dish was placed in a large plastic container (101 Oz). The insect mortality was scored after 2 days, and the mortality was normalized against negative control (water treatment) to calculate the % larval control.

[1] = UV stability assay of deltamethrin in NLPs; type: physicochemical
From the text: In addition, the four NLP formulations were also mixed with lignosulfonate (Borresperse NA, Borregaard), a widely used UV absorption agent at 3% final concentration, ten samples were exposed to UV light, and ten represented control samples that were not exposed to UV light.
For the samples to be exposed to UV exposure, the cap of the Eppendorf tube was removed, and a single layer of Saran wrap (SC Johnson) was pulled across the top and secured with a rubber band. For the control samples, the Eppendorf tube was capped and wrapped entirely in aluminum foil to completely block UV radiation.
All samples were placed 15 cm below the UV light (Hortilux PowerVEG Full Spectrum with UV Bulb, Growershouse, Cat #901678) with the UV radiation intensity at round 150 milliwatts per square centimeter (mW/cm^2). For each treatment, two samples were analyzed by LC-MS at t=0 (immediately after preparation), at day 1, day 2, day 3, and day 6. For each timepoint two UV samples and 2 control samples were removed for analysis by LC-MS/MS. Prior to analysis, the samples were diluted to 1 ml with methanol in the original 2 mL Eppendorf tubes. A further 100× dilution was performed in methanol and the samples were transferred to HPLC vials for analysis by LC-MS.

WCRW [2] = test: Small scale (green house 10 inch pot) in-furrow assay and dose-response; type: in vivo, western corn rootworm (WCRW); details: 2 mg/ml DE, in-furrow 3 ml, day 28
Experimental: Jumbo cotton balls were packed into the bottom of 10″ tall and 2.7″ diameter cylindrical containers. Wide straws were inserted for later use during the infestation process, then packed with ~660 g of silt loam soil. Soil was then watered with about 150 ml of water in three 50 ml increments 24 hrs before planting. A hole was made at a depth of 1.5 inch from the top of the soil. […] The particle size, PDI and zeta potential of these NLPs are similar to those prepared with 80 ug/ml of DE in the suspension (Table 8). The treatments were added around the edge of the hole for planting. A seed was then planted in the hole and covered with soil. Containers with seeds were then placed in the greenhouse to continue growing for 7 days until ready for infestation.
2nd instar WCRW larvae were shipped from the supplier (Crop Characteristic Inc., Farmington, MN USA) and stored at 10° C. until ready for use (less than a week). The 1st and 2nd infestations were conducted 7 and 14 days after seed planting, respectively. For each infestation, approximately 10 larvae were transferred to 0.5 ml microcentrifuge tube and released into soil via dropping the tube with the open mouth facing down into straws inserted when the pots were filled with soil. […]
The fresh weight for each whole seedling was measured using a scale and recorded.

WCRW [3] = test: Field-scale in-furrow treatment, open field trial (Example 53); type: in vivo, western corn rootworm (WCRW); details: 2 mg/ml
[4] = tested on: Colorado Potato Beetle (CPB); test: Tomato seedling root uptake assay followed by CPB infestation; details: 160 ug/ml in DCM

| Structure (SMILES) | minimum amount required for >90% inhibition of Fusarium (Fusarium oxysporum) [µg/mL] | insect mortality and stunting (tomato hornworm (THW)) | plant mass / fresh weight (fall army worms (FAW)) | FAW mortality (fall army worms (FAW)) | number of live whiteflies (whiteflies) | phytotoxicity (Tomato Horn Worm (THW)) | Repeat 1 (deltamethrin concentration) ([1]; Repeat 1, initial concentration, LC-MS) [µg/mL] | Repeat 2 (deltamethrin concentration) ([1]; Repeat 2, initial concentration, LC-MS) [µg/mL] | deltamethrin retention rate (actual deltamethrin/input deltamethrin) ([1]; after 6 days of UV exposure (figure legend)) [%] | Initial deltamethrin Concentration ([1]; mean of Repeat 1 and 2, LC-MS at t=0, before UV exposure) [µg/mL] | protection of whole plant mass and root mass from WCRW (WCRW [2]) | root injury rating (0 to 3) (WCRW [3]) | phytotoxicity to tomato seedlings [4] |
| --- | --- | --- | --- | --- | --- | --- | --- | --- | --- | --- | --- | --- | --- |
| CO/C=C(/C(=O)OC)c1ccccc1Oc1cc(Oc2ccccc2C#N)ncn1 [azoxystrobin] | 5 |  |  |  |  |  |  |  |  |  |  |  |  |
| CN/C(=N\[N+](=O)[O-])NCc1cnc(Cl)s1 [clothianidin] |  | significantly higher mortality and stunting | plant mass is the highest | FAW mortality is the highest | significantly lower |  |  |  |  |  |  |  |  |
| CC1(C)[C@H](C(=O)O[C@H](C#N)c2cccc(Oc3ccccc3)c2)[C@@H]1C=C(Br)Br [Deltamethrin] |  |  | fresh weight comparable to the water treated plants | none or very low mortality |  | phytotoxicity (wilting and chlorosis of plant tissue) | 104 | 114 | 15 | 109 | less effective in protecting whole plant mass | higher root damage than the NLP644 comprising deltamethrin at 2 mg/ml treatment | caused phytotoxicity to the tomato seedlings |
